From ChEMBL document CHEMBL4265943, “Design and synthesis of potent dual inhibitors of JAK2 and HDAC based on fusing the pharmacophores of XL019 and vorinostat” (Eur J Med Chem, 2018)

Experiments:
[1] = Selectivity index, ratio of CC50 for mouse TAMH cells to IC50 for human PC3 cells; format: toxicity; conditions: TAMH cells (CC50) and PC3 cells (IC50)
[2] = target: Tyrosine-protein kinase JAK2 (Homo sapiens, UniProt O60674); test: Inhibition of human JAK2 using poly(Glu:Tyr)(4:1) as substrate preincubated for 20 mins followed by [gamma33P]ATP addition measured after 120 mins by ion exchange filter paper method
[3] = system: HCT-116; test: Induction of apoptosis in human HCT116 cells assessed as early apoptotic cells at 0.99 uM after 72 hrs by Annexin V-FITC/propidium iodide staining based flow cytometry (reference value: 1.31%); format: functional
[4] = Selectivity index, ratio of CC50 for mouse TAMH cells to IC50 for human MCF7 cells; format: toxicity; conditions: TAMH cells (CC50) and MCF7 cells (IC50)
[5] = system: MDA-MB-231; test: Antiproliferative activity against human MDA-MB-231 cells after 72 hrs by MTT assay; format: functional, cell-based; conditions: MDA-MB-231, 72 h
[6] = system: MDA-MB-231; test: Induction of apoptosis in human MDA-MB-231 cells assessed as necrotic cells at 0.85 uM after 72 hrs by Annexin V-FITC/propidium iodide staining based flow cytometry (reference value: 5.45%); format: functional
[7] = Selectivity index, ratio of CC50 for human AC10 cells to IC50 for human MDA-MB-231 cells; format: toxicity; conditions: AC10 cells (CC50) and MDA-MB-231 cells (IC50)
[8] = system: PC-3; test: Induction of apoptosis in human PC3 cells assessed as late apoptotic cells at 1.07 uM after 72 hrs by Annexin V-FITC/propidium iodide staining based flow cytometry (reference value: 1.01%); format: functional
[9] = Antiproliferative activity against mouse TAMH cells after 72 hrs by MTT assay; format: cell-based
[10] = system: PC-3; test: Induction of apoptosis in human PC3 cells assessed as early apoptotic cells at 1.07 uM after 72 hrs by Annexin V-FITC/propidium iodide staining based flow cytometry (reference value: […]%); format: functional
[11] = system: HCT-116; test: Induction of apoptosis in human HCT116 cells assessed as live cells at 0.99 uM after 72 hrs by Annexin V-FITC/propidium iodide staining based flow cytometry (reference value: 95.7%); format: functional
[12] = system: MCF7; test: Induction of apoptosis in human MCF7 cells assessed as live cells at 1.64 uM after 72 hrs by Annexin V-FITC/propidium iodide staining based flow cytometry (reference value: 95.05%); format: functional
[13] = system: MDA-MB-231; test: Induction of apoptosis in human MDA-MB-231 cells assessed as early apoptotic cells at 0.85 uM after 72 hrs by Annexin V-FITC/propidium iodide staining based flow cytometry (reference value: 1.45%); format: functional
[14] = system: PC-3; test: Antiproliferative activity against human PC3 cells after 72 hrs by MTT assay; format: functional, cell-based; conditions: PC-3, 72 h
[15] = Selectivity index, ratio of CC50 for human AC10 cells to IC50 for human PC3 cells; format: toxicity; conditions: AC10 cells (CC50) and PC3 cells (IC50)
[16] = system: MDA-MB-231; test: Induction of apoptosis in human MDA-MB-231 cells assessed as live cells at 0.85 uM after 72 hrs by Annexin V-FITC/propidium iodide staining based flow cytometry (reference value: 90.98%); format: functional
[17] = system: MDA-MB-231; test: Induction of apoptosis in human MDA-MB-231 cells assessed as late apoptotic cells at 0.85 uM after 72 hrs by Annexin V-FITC/propidium iodide staining based flow cytometry (reference value: 2.12%); format: functional
[18] = system: MCF7; test: Induction of apoptosis in human MCF7 cells assessed as necrotic cells at 1.64 uM after 72 hrs by Annexin V-FITC/propidium iodide staining based flow cytometry (reference value: 2.17%); format: functional
[19] = system: HCT-116; test: Induction of apoptosis in human HCT116 cells assessed as necrotic cells at 0.99 uM after 72 hrs by Annexin V-FITC/propidium iodide staining based flow cytometry (reference value: 1.54%); format: functional
[20] = system: MCF7; test: Antiproliferative activity against human MCF7 cells after 72 hrs by MTT assay; format: functional, cell-based; conditions: MCF7, 72 h
[21] = Selectivity index, ratio of CC50 for human AC10 cells to IC50 for human MCF7 cells; format: toxicity; conditions: AC10 cells (CC50) and MCF7 cells (IC50)
[22] = target: Histone deacetylase 1 (Homo sapiens, UniProt Q13547); test: Inhibition of HDAC1 (unknown origin) using Arg-His-Lys-Lys(Ac) as substrate preincubated with enzyme followed by substrate addition for 2 hrs and measured for 1.5 hrs at 15 mins time interval by fluorescence assay
[23] = system: PC-3; test: Induction of apoptosis in human PC3 cells assessed as necrotic cells at 1.07 uM after 72 hrs by Annexin V-FITC/propidium iodide staining based flow cytometry (reference value: 0.66%); format: functional
[24] = system: MCF7; test: Induction of apoptosis in human MCF7 cells assessed as early apoptotic cells at 1.64 uM after 72 hrs by Annexin V-FITC/propidium iodide staining based flow cytometry (reference value: 1.19%); format: functional
[25] = system: MCF7; test: Induction of apoptosis in human MCF7 cells assessed as late apoptotic cells at 1.64 uM after 72 hrs by Annexin V-FITC/propidium iodide staining based flow cytometry (reference value: 1.59%); format: functional
[26] = Selectivity index, ratio of CC50 for mouse TAMH cells to IC50 for human MDA-MB-231 cells; format: toxicity; conditions: TAMH cells (CC50) and MDA-MB-231 cells (IC50)
[27] = system: PC-3; test: Induction of apoptosis in human PC3 cells assessed as live cells at 1.07 uM after 72 hrs by Annexin V-FITC/propidium iodide staining based flow cytometry (reference value: 96.36%); format: functional
[28] = Antiproliferative activity against human AC10 cells after 72 hrs by MTT assay; format: cell-based
[29] = system: HCT-116; test: Antiproliferative activity against human HCT116 cells after 72 hrs by MTT assay; format: functional, cell-based; conditions: HCT-116, 72 h
[30] = system: HCT-116; test: Induction of apoptosis in human HCT116 cells assessed as late apoptotic cells at 0.99 uM after 72 hrs by Annexin V-FITC/propidium iodide staining based flow cytometry (reference value: 1.45%); format: functional
[31] = target: T1, Protein deacetylase HDAC6 (Homo sapiens, UniProt Q9UBN7); test: Inhibition of HDAC6 (unknown origin) using Arg-His-Lys-Lys(Ac) as substrate preincubated with enzyme followed by substrate addition for 2 hrs and measured for 1.5 hrs at 15 mins time interval by fluorescence assay
T1 sequence (Q9UBN7 whole entry): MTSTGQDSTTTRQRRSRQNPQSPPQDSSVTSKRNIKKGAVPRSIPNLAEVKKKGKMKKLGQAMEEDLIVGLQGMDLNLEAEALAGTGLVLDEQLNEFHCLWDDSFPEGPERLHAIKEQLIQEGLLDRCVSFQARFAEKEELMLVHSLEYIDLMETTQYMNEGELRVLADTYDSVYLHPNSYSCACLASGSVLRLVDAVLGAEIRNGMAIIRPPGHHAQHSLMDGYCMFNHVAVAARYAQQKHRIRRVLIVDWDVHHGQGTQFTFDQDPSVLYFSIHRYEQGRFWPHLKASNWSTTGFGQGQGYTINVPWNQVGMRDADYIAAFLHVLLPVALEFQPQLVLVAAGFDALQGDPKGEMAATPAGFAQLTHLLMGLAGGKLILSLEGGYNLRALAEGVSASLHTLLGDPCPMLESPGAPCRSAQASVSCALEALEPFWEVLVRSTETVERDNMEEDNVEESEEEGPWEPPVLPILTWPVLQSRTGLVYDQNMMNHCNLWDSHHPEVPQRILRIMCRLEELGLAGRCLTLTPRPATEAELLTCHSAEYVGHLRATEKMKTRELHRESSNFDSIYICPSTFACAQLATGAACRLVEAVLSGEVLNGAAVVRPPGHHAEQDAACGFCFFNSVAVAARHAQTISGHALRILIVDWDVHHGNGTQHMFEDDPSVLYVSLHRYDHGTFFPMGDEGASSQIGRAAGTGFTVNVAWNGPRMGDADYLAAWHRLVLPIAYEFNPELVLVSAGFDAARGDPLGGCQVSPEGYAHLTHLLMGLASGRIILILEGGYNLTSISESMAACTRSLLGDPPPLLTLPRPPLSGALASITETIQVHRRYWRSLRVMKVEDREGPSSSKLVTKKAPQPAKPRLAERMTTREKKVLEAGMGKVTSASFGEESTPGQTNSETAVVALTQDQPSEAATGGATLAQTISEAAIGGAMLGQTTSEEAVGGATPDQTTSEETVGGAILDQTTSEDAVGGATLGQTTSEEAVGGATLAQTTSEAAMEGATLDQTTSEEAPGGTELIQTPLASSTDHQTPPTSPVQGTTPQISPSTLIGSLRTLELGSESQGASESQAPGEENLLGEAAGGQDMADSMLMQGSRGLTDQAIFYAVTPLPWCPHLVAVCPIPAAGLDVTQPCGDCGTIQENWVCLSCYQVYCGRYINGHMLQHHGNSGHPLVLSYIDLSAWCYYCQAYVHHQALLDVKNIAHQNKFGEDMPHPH

Sequence of Tyrosine-protein kinase JAK2 (O60674 whole entry): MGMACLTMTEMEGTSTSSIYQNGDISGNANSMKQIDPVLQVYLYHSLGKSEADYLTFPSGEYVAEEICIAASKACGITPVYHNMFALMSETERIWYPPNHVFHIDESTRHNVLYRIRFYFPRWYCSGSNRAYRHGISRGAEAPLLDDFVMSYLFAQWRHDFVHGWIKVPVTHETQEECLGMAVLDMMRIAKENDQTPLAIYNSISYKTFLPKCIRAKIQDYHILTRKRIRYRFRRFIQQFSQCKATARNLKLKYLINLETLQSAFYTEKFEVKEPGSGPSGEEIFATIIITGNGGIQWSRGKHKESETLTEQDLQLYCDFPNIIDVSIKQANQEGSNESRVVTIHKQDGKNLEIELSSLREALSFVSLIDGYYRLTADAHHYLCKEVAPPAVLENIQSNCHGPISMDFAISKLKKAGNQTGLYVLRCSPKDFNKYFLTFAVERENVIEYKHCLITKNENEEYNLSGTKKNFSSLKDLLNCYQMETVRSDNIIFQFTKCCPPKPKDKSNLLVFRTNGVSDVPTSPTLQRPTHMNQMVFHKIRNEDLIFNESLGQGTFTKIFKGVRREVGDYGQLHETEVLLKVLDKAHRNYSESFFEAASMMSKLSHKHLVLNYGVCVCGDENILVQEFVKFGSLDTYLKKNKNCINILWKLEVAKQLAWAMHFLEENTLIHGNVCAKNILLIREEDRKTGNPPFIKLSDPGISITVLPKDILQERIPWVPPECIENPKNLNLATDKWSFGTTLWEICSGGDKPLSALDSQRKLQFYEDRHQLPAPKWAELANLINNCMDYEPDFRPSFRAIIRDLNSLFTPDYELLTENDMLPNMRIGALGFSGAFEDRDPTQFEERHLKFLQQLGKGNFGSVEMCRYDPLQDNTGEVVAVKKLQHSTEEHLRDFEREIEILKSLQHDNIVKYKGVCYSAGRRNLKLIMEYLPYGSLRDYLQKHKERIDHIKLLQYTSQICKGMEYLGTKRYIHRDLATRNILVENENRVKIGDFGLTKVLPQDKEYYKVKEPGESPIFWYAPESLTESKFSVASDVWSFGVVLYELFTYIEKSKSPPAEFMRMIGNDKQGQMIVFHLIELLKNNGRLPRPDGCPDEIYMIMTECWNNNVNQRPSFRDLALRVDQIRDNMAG
Sequence of Histone deacetylase 1 (Q13547 whole entry): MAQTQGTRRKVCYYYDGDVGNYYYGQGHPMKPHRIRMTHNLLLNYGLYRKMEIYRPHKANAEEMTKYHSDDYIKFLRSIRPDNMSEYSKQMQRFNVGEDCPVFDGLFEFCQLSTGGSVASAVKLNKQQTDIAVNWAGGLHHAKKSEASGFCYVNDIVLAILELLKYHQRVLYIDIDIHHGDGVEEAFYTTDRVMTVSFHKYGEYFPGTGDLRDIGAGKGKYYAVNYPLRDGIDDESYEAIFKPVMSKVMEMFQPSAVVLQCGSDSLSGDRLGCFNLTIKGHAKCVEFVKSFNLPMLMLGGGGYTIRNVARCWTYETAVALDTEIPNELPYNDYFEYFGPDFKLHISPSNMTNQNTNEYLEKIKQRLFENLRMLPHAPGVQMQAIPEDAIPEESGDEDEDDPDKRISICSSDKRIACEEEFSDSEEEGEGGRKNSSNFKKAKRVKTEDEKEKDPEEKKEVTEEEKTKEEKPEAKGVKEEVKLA

CN1CCN(c2ccc(Nc3nccc(-c4ccc(NC(=O)CCCCCCC(=O)NO)cc4)n3)cc2)CC1
selectivity ratio [1]: 5.33
IC50 [2]: 4.6 nM
Activity [3]: 5.87%
selectivity ratio [4]: 3.38
IC50 [5]: 910 nM
Activity [6]: 6.84%
selectivity ratio [7]: 3.64
Activity [8]: 19.83%
CC50 at 72 h [9]: 5440 nM
Activity [10]: 73.28%
Activity [11]: 83.01%
Activity [12]: 88.21%
Activity [13]: 39.4%
IC50 [14]: 1020 nM
selectivity ratio [15]: 3.25
Activity [16]: 13.2%
Activity [17]: 40.56%
Activity [18]: 1.88%
Activity [19]: 4.69%
IC50 [20]: 1610 nM
selectivity ratio [21]: 2.06
IC50 [22]: 77 nM
Activity [23]: 1.54%
Activity [24]: 6.54%
Activity [25]: 3.37%
selectivity ratio [26]: 5.98
Activity [27]: 5.35%
CC50 at 72 h [28]: 3310 nM
IC50 [29]: 990 nM
Activity [30]: 6.43%
IC50 [31]: 3.1 nM
